Results from ChEMBL document CHEMBL1201862, “PubChem BioAssay data set” (2004).
Where a name gives a salt, the structure may show the parent alone. Active and inactive are the calls of the source.

How the values were obtained:
[1] = fibronectin fibrillogenesis inhibitors in fibroblasts, dose response, AH1F cells, Alexa488-fibronectin fluorescence, cherry-pick, set 2 (AID 1117283); type: functional, cell-based
[2] = target: NAD-dependent protein deacylase sirtuin-5, mitochondrial (Homo sapiens, UniProt Q9NXA8); assay: SIRT5 desuccinylase inhibitors, dose response, biochemical, fluorescence imaging, cherry-pick, set 5 (AID 720591);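 further: desuccinylation of succinyl peptide AMC substrate read as fluorescence after trypsin release; potency of inhibitors that lower fluorescence and may act on trypsin instead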
[3] = target: G-protein coupled receptor 183 (Homo sapiens, UniProt P32249); assay: SAR confirmation of small molecule antagonists of the EBI2 receptor via a luminescent beta-arrestin assa.; type: functional
[4] = Late-stage results from the probe development effort to identify antagonists of arginine vasopressin receptor 1a (AVPR1a): fluorescence-based cell-based dose response AVPR1a inhibition assay.; type: functional
Vasopressin V2 receptor = Vasopressin V2 receptor (Homo sapiens, UniProt P30518); assay: Late-stage results from the probe development effort to identify antagonists of arginine vasopressin receptor 1a (AVPR1a): fluorescence-based cell-based dose response AVPR2 inhibition counterscreen assay.; type: functional
[5] = Late-stage results from the probe development effort to identify antagonists of arginine vasopressin receptor 1a (AVPR1a): fluorescence-based cell-based dose response OXTR inhibition counterscreen assay.; type: functional
Vasopressin V1b receptor = Vasopressin V1b receptor (Homo sapiens, UniProt P47901); assay: Late-stage results from the probe development effort to identify antagonists of arginine vasopressin receptor 1a (AVPR1a): fluorescence-based cell-based dose response AVPR1b inhibition counterscreen assay.; type: functional
[6] = HCT116 cell viability decrease, GSK3B pretreatment – CellTiter-Glo, IC50, dose response (AID 1117339); type: functional; conditions: HCT-116
[7] = SNU-C1 cell viability reduction, dose response, CellTiter-Glo luminescence (AID 1117323); type: functional, cell-based
[8] = cytotoxicity toward HT-29 cells – cell-based, CellTiter-Glo luminescence, IC50, dose response (AID 1117330); type: functional
[9] = Glucagon-like peptide 1 release potency, NCI-H716 cell line, dose-response, half-maximal inhibitory concentration (AID 1117344); type: functional, cell-based
[10] = RKO cell viability reduction, dose response, CellTiter-Glo luminescence (AID 1117322); type: functional
[11] = cytotoxicity toward Colo320 cells – cell-based, CellTiter-Glo luminescence, IC50, dose response (AID 1117334); type: functional; conditions: COLO 320
[12] = CellTiter-Glo luminescent dose response of DLD-1 viability loss (AID 1117352); type: functional
[13] = HeLa 2N DNA content increase, dose response, cell-based, IC50 (AID 1117349); type: functional
[14] = cytotoxicity toward HCT116 cells – cell-based, CellTiter-Glo luminescence, IC50, dose response (AID 1117332); type: functional; conditions: HCT-116
[15] = Concentration-dependent survival of SW480 colon cancer line, luminescence detection with CellTiter-Glo, half-maximal inhibitory concentration (AID 1117338); type: functional
[16] = half-maximal inhibitory concentration for glucagon-like peptide-1 release, STC-1 cell line, dose-response (AID 1117345); type: functional, cell-based
[17] = HeLa 4N DNA content increase, dose response, cell-based, IC50 (AID 1117351); type: functional
[18] = Dose-response inhibition of insulin secretion in a rat insulinoma line at 5 mM glucose (AID 1117331); type: functional, cell-based; conditions: INS-1E

G-protein coupled receptor 183, sequence (P32249 whole entry): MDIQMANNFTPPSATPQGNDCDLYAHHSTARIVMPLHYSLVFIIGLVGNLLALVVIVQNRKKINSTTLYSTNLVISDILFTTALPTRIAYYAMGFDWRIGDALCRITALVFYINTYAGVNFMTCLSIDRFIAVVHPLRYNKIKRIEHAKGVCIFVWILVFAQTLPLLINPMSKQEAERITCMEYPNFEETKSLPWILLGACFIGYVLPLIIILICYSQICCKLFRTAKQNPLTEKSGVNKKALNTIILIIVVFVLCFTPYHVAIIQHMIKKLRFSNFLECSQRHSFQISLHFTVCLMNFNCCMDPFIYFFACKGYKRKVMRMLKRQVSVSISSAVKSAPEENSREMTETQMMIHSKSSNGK
Vasopressin V2 receptor, sequence (P30518 whole entry): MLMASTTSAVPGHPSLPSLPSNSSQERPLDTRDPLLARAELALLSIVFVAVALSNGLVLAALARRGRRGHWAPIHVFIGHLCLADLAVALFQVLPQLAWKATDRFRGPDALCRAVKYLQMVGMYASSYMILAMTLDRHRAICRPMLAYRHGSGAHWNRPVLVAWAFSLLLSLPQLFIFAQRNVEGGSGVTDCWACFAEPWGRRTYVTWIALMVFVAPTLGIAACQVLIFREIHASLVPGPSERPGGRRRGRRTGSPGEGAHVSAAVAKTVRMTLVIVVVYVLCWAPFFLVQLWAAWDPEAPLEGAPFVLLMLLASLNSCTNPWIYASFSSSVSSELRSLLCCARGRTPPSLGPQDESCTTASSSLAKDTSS
Vasopressin V1b receptor, sequence (P47901 whole entry): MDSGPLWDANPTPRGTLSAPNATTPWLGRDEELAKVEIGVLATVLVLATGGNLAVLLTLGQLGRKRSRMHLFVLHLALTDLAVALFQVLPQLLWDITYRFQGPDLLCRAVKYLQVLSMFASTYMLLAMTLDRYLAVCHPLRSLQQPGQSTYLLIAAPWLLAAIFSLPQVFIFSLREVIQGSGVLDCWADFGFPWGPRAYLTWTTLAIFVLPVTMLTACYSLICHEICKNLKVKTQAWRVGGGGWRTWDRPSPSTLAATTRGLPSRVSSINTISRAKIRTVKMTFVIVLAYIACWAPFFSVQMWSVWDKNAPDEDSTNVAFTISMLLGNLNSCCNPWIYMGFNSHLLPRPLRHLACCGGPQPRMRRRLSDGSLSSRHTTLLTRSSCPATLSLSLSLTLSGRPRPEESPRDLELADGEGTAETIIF
NAD-dependent protein deacylase sirtuin-5, mitochondrial, sequence (Q9NXA8 whole entry): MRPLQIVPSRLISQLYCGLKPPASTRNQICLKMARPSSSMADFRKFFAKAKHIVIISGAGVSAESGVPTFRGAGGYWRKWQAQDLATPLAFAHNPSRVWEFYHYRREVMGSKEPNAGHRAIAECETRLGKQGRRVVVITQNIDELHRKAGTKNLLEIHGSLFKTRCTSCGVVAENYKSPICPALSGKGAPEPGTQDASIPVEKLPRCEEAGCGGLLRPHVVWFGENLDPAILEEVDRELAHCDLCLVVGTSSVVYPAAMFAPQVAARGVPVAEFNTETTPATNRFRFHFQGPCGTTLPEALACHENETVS

With `C[C@@H]1CN([C@H](C)CO)C(=O)c2cc(-c3ccccc3)cnc2O[C@@H]1CN(C)C(=O)c1cccc(F)c1` the AC50 [1] was > 70 µM (inactive).
For `CNCCC(Oc1ccccc1OC)c1ccccc1` (stereo not drawn) [NISOXETINE HYDROCHLORIDE], the AC50 [2] was > 30 µM (inactive).
In the case of `CCC(C)N1CCN(C(=O)/C=C/c2ccc(Br)cc2)CC1` (stereo not drawn), the IC50 [3] is reported as 0.00223 µM (active).
With `Cc1ccccc1N1CCN(C(=O)N(CC2CC2)c2ccccc2)CC1` the IC50 [4] was 0.019 µM (active), the IC50 (Vasopressin V2 receptor) was 4.89 µM (active) and the IC50 [5] was 4.9 µM (active). The IC50 (Vasopressin V1b receptor) was 22 µM (inactive).
With `CCN(CC)CCOc1ccc(C(O)(Cc2ccc(Cl)cc2)c2ccc(C)cc2)cc1` (stereo not drawn) [TRIPARANOL] the IC50 [6] was 3.74 µM (active), the IC50 [7] was 2.46 µM (active) and the IC50 [8] was 3.17 µM (active). For the same molecule, the IC50 [9] was 36.1 µM (inactive), the IC50 [10] was 0.299 µM (active) and the IC50 [11] was 8.99 µM (inactive). For the same molecule, the IC50 [12] was > 20 µM (inactive), the IC50 [13] was > 10 µM (inactive) and the IC50 [14] was > 20 µM (inactive). For the same molecule, the IC50 [15] was 3.76 µM (active), the IC50 [16] was > 40 µM (inactive) and the IC50 [17] was > 10 µM (inactive).
For `O=C(c1ccc(Br)cc1)N1CCN(Cc2ccc(Cl)cc2)CC1`, the IC50 [3] was 0.478 µM (active).
In the case of `Cc1cc(O)c2c(O)c3c(O)cccc3cc2c1`, the IC50 [18] is reported as > 33.3 µM (inactive), the IC50 [9] is reported as > 20 µM (inactive) and the IC50 [16] is reported as 11.3 µM (inactive).
